The subject of test [1] is acute HIV infection of T-lymphoid cells. Kind of test: Inhibition of acute HIV infection of T-lymphoid cells (spread assay). The format is cell-based. Conditions: Human immunodeficiency virus 1. Here is the method: An assay for the inhibition of acute HIV infection of T-lymphoid cells (alternatively referred to herein as the “spread assay”) was conducted in accordance with Vacca, J. P. et al., Proc. Natl. Acad. Sci. USA 1994, 91: 4096.

The subject of test [2] is acute HIV infection with HeLa P4-2 cells. Nature of the test: Single cycle infectivity assay with HeLa P4-2 cells (vertical assay). The format is cell-based. To be noted: Human immunodeficiency virus 1, HeLaP4-2. Here is the method: An assay for measuring the inhibition of acute HIV infection with HeLa P4-2 cells in a single cycle infectivity assay (alternatively referred to herein as the “vertical assay”) was conducted in accordance with Joyce, J. G. et al., J. Biol. Chem. 2002, 277: 45811, Hazuda, D. J. et al., Science, 2000, 287, 646, and Kimpton, J. et al, J. Virol. 1992, 66: 2232.

For test [3], the target named is T1, recombinant integrase (HIV integrase) (Human immunodeficiency virus type 1 group M subtype B, UniProt P04585).
T1 construct: Strand Transfer Catalyzed by Recombinant Integrase
Kind of test: HIV integrase assay: strand transfer catalyzed by recombinant integrase. The test is classed as biochemical. To be noted: assay per WO 02/30930, read-out: IC50, inhibition of strand transfer activity of integrase. The protocol: Assays for the strand transfer activity of integrase were conducted in accordance with WO 02/30930 for recombinant integrase.
Further description on conducting the assay using preassembled complexes is found in Wolfe, A. L. et al., J. Virol. 1996, 70: 1424-1432, Hazuda et al., J. Virol. 1997, 71: 7005-7011; Hazuda et al., Drug Design and Discovery 1997, 15: 17-24; and Hazuda et al., Science 2000, 287: 646-650.

The values that follow come from patent US7476666B2, “HIV integrase inhibitors” (Merck & Co., Inc., priority 2004, dated 2009).

Take `COC(=O)c1nn2c(c1O)C(=O)N(Cc1ccc(F)cc1)CC2` [Example 1, Methyl 5-(4-fluorobenzyl)-3-hydroxy-4-oxo-4,5,6,7-tetrahydropyrazolo[1,5-a]pyrazine-2-carboxylate]: the 95% effect concentration (IC95) in test [1] is more than 10 µM. The IC50 in test [2] was more than 100 µM.

Consider `CNC(=O)c1nn2c(c1O)C(=O)N(Cc1ccc(F)cc1)C(C)C2` (centres unmarked) [Example 6, 5-(4-Fluorobenzyl)-3-hydroxy-N-methyl-6-methyl-4-oxo-4,5,6,7-tetrahydropyrazolo[1,5-a]pyrazine-2-carboxamide], for which the concentration for an effect of 95% (IC95) in test [1] is more than 10 µM. In test [2], this compound had a half-maximal inhibitory concentration (IC50) of less than 40 µM. In test [1], `CN1CCn2nc(C(=O)N3CCc4ccccc4C3)c(O)c2C1=O` [Example 14, 3-Hydroxy-5-methyl-4-oxo-2-[(1,2,3,4-tetrahydro-isoquinolin-2-yl)carbonyl]-4,5,6,7-tetrahydropyrazolo[1,5-a]pyrazine] yielded a concentration for an effect of 95% (IC95) of more than 10 µM. In test [3], the IC50 was more than 10 µM. `CN1CCn2nc(C(=O)N3CCCC3c3ccccc3)c(O)c2C1=O` (centres unmarked) [Example 16, 3-Hydroxy-5-methyl-4-oxo-2-[(2-phenylpyrrolidin-1-yl)carbonyl]-4,5,6,7-tetrahydropyrazolo[1,5-a]pyrazine] showed a 95% effect concentration (IC95) in test [1] of more than 10 µM. The IC50 in test [3] was more than 10 µM. In test [1], `CN(Cc1ccc2nccnc2c1)C(=O)c1nn2c(c1O)C(=O)N(C)CC2` [Example 17, 3-Hydroxy-5-methyl-4-oxo-2-{[quinoxalin-6-ylmethyl(methyl)amino]carbonyl}-4,5,6,7-tetrahydropyrazolo[1,5-a]pyrazine] displayed an IC95 of more than 10 µM. The same compound showed a 50% inhibitory concentration (IC50) in test [2] of less than 40 µM. `CN1CCn2nc(C(=O)N(CCO)Cc3ccccc3)c(O)c2C1=O` [Example 18, 2-[Benzyl(2-hydroxyethyl)aminocarbonyl]-3-hydroxy-5-methyl-4-oxo-4,5,6,7-tetrahydropyrazolo[1,5-a]pyrazine]: the IC95 in test [1] is more than 10 µM. Also, the IC50 in test [2] was more than 100 µM. `CN(C)CCN(Cc1ccccc1)C(=O)c1nn2c(c1O)C(=O)N(C)CC2` [Example 19, 2-{Benzyl[2-(dimethylamino)ethyl]aminocarbonyl}-3-hydroxy-5-methyl-4-oxo-4,5,6,7-tetrahydropyrazolo[1,5-a]pyrazine] displayed an IC95 in test [1] of more than 10 µM. Further, the IC50 in test [2] was more than 100 µM; in test [3] it was more than 10 µM. The compound `O=C(NC1CCNCC1)c1nn2c(c1O)C(=O)N(Cc1ccc(F)cc1)CC2` [Example 25, 5-(4-Fluorobenzyl)-3-hydroxy-4-oxo-N-(4-piperidinyl)-4,5,6,7-tetrahydropyrazolo[1,5-a]pyrazine-2-carboxamide] came in with a 95% effect concentration (IC95) in test [1] of more than 10 µM. The IC50 in test [2] was less than 40 µM. The corresponding values for `O=C(c1nn2c(c1O)C(=O)N(Cc1ccc(F)cc1)CC2)N1CCOCC1` [Example 28, 5-(4-Fluorobenzyl)-3-hydroxy-2-(morpholin-4-ylcarbonyl)-4-oxo-4,5,6,7-tetrahydropyrazolo[1,5-a]pyrazine] are more than 10 µM and less than 40 µM. Consider `CNC(=O)c1cc(F)ccc1CNC(=O)c1nn2c(c1O)C(=O)N(C)C[C@H]2c1ccccc1` [Example 34, (7R)-N-{4-Fluoro-2-[(methylamino)carbonyl]benzyl}-3-hydroxy-5-methyl-4-oxo-7-phenyl-4,5,6,7-tetrahydropyrazolo[1,5-a]pyrazine-2-carboxamide], for which, in test [1], the 95% effect concentration (IC95) is not above 10 µM. Same read-out and setting: the value for `CN1C[C@@H](c2ccccc2)n2nc(C(=O)NCc3ccc(F)cc3C(=O)NC3CC3)c(O)c2C1=O` [Example 35, (7R)-N-{2-[(Cyclopropylamino)carbonyl]-4-fluorobenzyl}-3-hydroxy-5-methyl-4-oxo-7-phenyl-4,5,6,7-tetrahydropyrazolo[1,5-a]pyrazine-2-carboxamide] was not above 10 µM; that for `CN1C[C@H](c2ccccc2)n2nc(C(=O)NCc3ccc(F)cc3C(=O)NC3CC3)c(O)c2C1=O` [Example 36, (7S)-N-{2-[(Cyclopropylamino)carbonyl]-4-fluorobenzyl}-3-hydroxy-5-methyl-4-oxo-7-phenyl-4,5,6,7-tetrahydropyrazolo[1,5-a]pyrazine-2-carboxamide] was not above 10 µM; that for `CN(C)C(=O)c1cc(F)ccc1CNC(=O)c1nn2c(c1O)C(=O)N(C)C[C@H]2c1ccccc1` [Example 37, (7R)-N-{2-[(Dimethylamino)carbonyl]-4-fluorobenzyl}-3-hydroxy-5-methyl-4-oxo-7-phenyl-4,5,6,7-tetrahydropyrazolo[1,5-a]pyrazine-2-carboxamide] was not above 10 µM.

For the compound `CN(C)C(=O)c1cc(F)ccc1CNC(=O)c1nn2c(c1O)C(=O)N(C)C[C@@H]2c1ccccc1` [Example 38, (7S)-N-{2-[(Dimethylamino)carbonyl]-4-fluorobenzyl}-3-hydroxy-5-methyl-4-oxo-7-phenyl-4,5,6,7-tetrahydropyrazolo[1,5-a]pyrazine-2-carboxamide], the IC95 in test [1] was not above 10 µM.

Consider `CCNC(=O)c1cc(F)ccc1CNC(=O)c1nn2c(c1O)C(=O)N(C)C[C@H]2c1ccccc1` [Example 39, (7R)-N-{2-[(Ethylamino)carbonyl]-4-fluorobenzyl}-3-hydroxy-5-methyl-4-oxo-7-phenyl-4,5,6,7-tetrahydropyrazolo[1,5-a]pyrazine-2-carboxamide], for which, in test [1], the concentration for an effect of 95% (IC95) was not above 10 µM.

`CCNC(=O)c1cc(F)ccc1CNC(=O)c1nn2c(c1O)C(=O)N(C)C[C@@H]2c1ccccc1` [Example 40, (7S)-N-{2-[(Ethylamino)carbonyl]-4-fluorobenzyl}-3-hydroxy-5-methyl-4-oxo-7-phenyl-4,5,6,7-tetrahydropyrazolo[1,5-a]pyrazine-2-carboxamide] yielded a 95% effect concentration (IC95) in test [1] not above 10 µM. On the same count and under the same terms, the value for `CN1C[C@@H](c2ccccc2)n2nc(C(=O)NCc3ccc(F)cc3C(N)=O)c(O)c2C1=O` [Example 41, (7R)-N-[2-(Aminocarbonyl)-4-fluorobenzyl]-3-hydroxy-5-methyl-4-oxo-7-phenyl-4,5,6,7-tetrahydropyrazolo[1,5-a]pyrazine-2-carboxamide] was not above 10 µM. On the same count and under the same terms, the value for `CN1C[C@H](c2ccccc2)n2nc(C(=O)NCc3ccc(F)cc3C(N)=O)c(O)c2C1=O` [Example 42, (7S)-N-[2-(Aminocarbonyl)-4-fluorobenzyl]-3-hydroxy-5-methyl-4-oxo-7-phenyl-4,5,6,7-tetrahydropyrazolo[1,5-a]pyrazine-2-carboxamide] was not above 10 µM; that for `CN1CC(c2cccc(Br)c2)n2nc(C(=O)NCc3ccc(F)cc3)c(O)c2C1=O` (centres unmarked) [Example 43, 7-(3-Bromophenyl)-N-(4-fluorobenzyl)-3-hydroxy-5-methyl-4-oxo-4,5,6,7-tetrahydropyrazolo[1,5-a]pyrazine-2-carboxamide] was not above 10 µM. With `CN1CC(c2cccc(C#N)c2)n2nc(C(=O)NCc3ccc(F)cc3)c(O)c2C1=O` (centres unmarked) [Example 44, 7-(3-Cyanophenyl)-N-(4-fluorobenzyl)-3-hydroxy-5-methyl-4-oxo-4,5,6,7-tetrahydropyrazolo[5,5-a]pyrazine-2-carboxamide], the IC95 in test [1] was not above 10 µM. Consider `CN1CC(c2ccncc2)n2nc(C(=O)NCc3ccc(F)cc3)c(O)c2C1=O` (centres unmarked) [Example 45, N-(4-Fluorobenzyl)-3-hydroxy-5-methyl-4-oxo-7-pyridin-4-yl-4,5,6,7-tetrahydropyrazolo[1,5-a]pyrazine-2-carboxamide], for which the IC95 in test [1] is not above 10 µM. Still for that read-out and setting: the value for `CN1CC(c2ccncc2)n2nc(C(=O)NCc3ccc(F)c(Cl)c3)c(O)c2C1=O` (centres unmarked) [Example 46, N-(3-Chloro-4-fluorobenzyl)-3-hydroxy-5-methyl-4-oxo-7-pyridin-4-yl-4,5,6,7-tetrahydropyrazolo[1,5-a]pyrazine-2-carboxamide] was not above 10 µM; that for `CNC(=O)c1cc(F)ccc1CNC(=O)c1nn2c(c1O)C(=O)N(C)CC2c1ccccn1` (centres unmarked) [Example 47, N-{4-Fluoro-2-[(methylamino)carbonyl]benzyl}-3-hydroxy-5-methyl-4-oxo-7-pyridin-2-yl-4,5,6,7-tetrahydropyrazolo[1,5-a]pyrazine-2-carboxamide] was not above 10 µM. On the same count and under the same terms, the value for `CC(C)C1CN(C)C(=O)c2c(O)c(C(=O)NCc3ccc(F)cc3)nn21` (centres unmarked) [Example 48, N-(4-Fluorobenzyl)-3-hydroxy-7-isopropyl-5-methyl-4-oxo-4,5,6,7-tetrahydropyrazolo[1,5-a]pyrazine-2-carboxamide] was not above 10 µM. Still for that read-out and setting: the value for `CNC(=O)c1cc(F)ccc1CNC(=O)c1nn2c(c1O)C(=O)N(C)CC2C(C)C` (centres unmarked) [Example 49, N-{4-Fluoro-2-[(methylamino)carbonyl]benzyl}-3-hydroxy-7-isopropyl-5-methyl-4-oxo-4,5,6,7-tetrahydropyrazolo[1,5-a]pyrazine-2-carboxamide] was not above 10 µM.

A word on the IC95: it is the concentration at which the effect reaches the 95% level. Usually IC50 stands for the concentration that inhibits the measured activity by half.
